Patent US10519134B2, “Pyrazole compounds and methods of making and using same” (Lundbeck La Jolla Research Center, Inc., priority 2015, dated 2019)

Key:
MAGL = target: T1, MAGL (Mus musculus, UniProt O35678); assay: In vitro competitive activity-based protein profiling (mouse), MAGL gel band; format: biochemical; details: for IC50: mouse; for inhibition at 1 µM: read-out: MAGL % inh. 1 μM
T1 construct: Proteomes (mouse brain membrane fraction or cell lysates); from tissue; host or cells: mouse brain membrane fraction (or cell lysates)
T1 sequence (O35678 1-303): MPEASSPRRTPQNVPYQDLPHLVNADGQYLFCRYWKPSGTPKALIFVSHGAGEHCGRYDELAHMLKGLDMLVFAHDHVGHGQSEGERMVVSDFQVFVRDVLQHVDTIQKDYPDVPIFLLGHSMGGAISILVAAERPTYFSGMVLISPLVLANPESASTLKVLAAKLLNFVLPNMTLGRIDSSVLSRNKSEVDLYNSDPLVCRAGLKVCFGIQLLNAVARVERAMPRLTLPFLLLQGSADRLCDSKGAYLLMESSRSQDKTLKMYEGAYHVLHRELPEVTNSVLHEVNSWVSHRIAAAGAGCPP
Method: (§1) In Vitro Competitive Activity-Based Protein Profiling (Mouse).
(§2) Proteomes (mouse brain membrane fraction or cell lysates) (50 μL, 1.0 mg/mL total protein concentration) were preincubated with varying concentrations of inhibitors at 37° C. After 30 min, FP-Rh or HT-01 (1.0 μL, 50 μM in DMSO) was added and the mixture was incubated for another 30 min at 37° C. Reactions were quenched with SDS loading buffer (15 μL—4×) and run on SDS-PAGE. Following gel imaging, serine hydrolase activity was determined by measuring fluorescent intensity of gel bands corresponding to MAGL, ABHD6, and FAAH, using ImageJ 1.43u software.

FAAH = target: T2, FAAH (Mus musculus, UniProt O08914); assay: In vitro competitive activity-based protein profiling (mouse), FAAH gel band; format: biochemical; details: for IC50: mouse; for inhibition at 1 µM: read-out: FAAH % inh. 1 μM
T2 construct: Proteomes (mouse brain membrane fraction or cell lysates); from tissue; host or cells: mouse brain membrane fraction (or cell lysates)
T2 sequence (O08914 1-579): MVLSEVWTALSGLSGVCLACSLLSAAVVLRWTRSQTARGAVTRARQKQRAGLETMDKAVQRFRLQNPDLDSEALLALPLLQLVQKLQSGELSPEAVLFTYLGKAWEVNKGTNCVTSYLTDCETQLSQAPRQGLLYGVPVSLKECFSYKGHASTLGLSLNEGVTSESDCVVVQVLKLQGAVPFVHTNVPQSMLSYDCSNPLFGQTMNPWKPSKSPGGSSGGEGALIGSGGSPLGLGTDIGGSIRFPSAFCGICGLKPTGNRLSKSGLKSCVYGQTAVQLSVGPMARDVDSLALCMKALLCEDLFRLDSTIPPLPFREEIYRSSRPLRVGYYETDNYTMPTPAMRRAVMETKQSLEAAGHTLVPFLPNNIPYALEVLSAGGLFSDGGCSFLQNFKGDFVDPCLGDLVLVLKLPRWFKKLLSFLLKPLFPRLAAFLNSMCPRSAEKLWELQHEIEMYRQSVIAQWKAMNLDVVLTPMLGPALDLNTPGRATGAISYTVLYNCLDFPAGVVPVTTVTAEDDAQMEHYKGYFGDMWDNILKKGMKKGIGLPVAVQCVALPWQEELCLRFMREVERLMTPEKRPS
Method: as §1, §2

| SMILES | IC50 (MAGL) | inhibition at 1 µM (MAGL) | IC50 (FAAH) | inhibition at 1 µM (FAAH) |
| --- | --- | --- | --- | --- |
| CC(=O)N(C)c1ccn(C(=O)N2CCN(Cc3ccc(C(F)(F)F)cc3N3CCCC3)CC2)n1 [Example 2, N-methyl-N-(1-(4-(2-(pyrrolidin-1-yl)-4-(trifluoromethyl)benzyl)piperazine-1-carbonyl)-1H-pyrazol-3-yl)acetamide] | 100 to 1000 nM | ≥ 75% | 1000 to 10000 nM | 0 to 25% |
| CC(=O)Nc1ccn(C(=O)N2CCN(Cc3ccc(Cl)cc3N3CCC(F)CC3)CC2)n1 [Example 7, N-(1-(4-(4-chloro-2-(4-fluoropiperidin-1-yl)benzyl)piperazine-1-carbonyl)-1H-pyrazol-3-yl)acetamide] | ≤ 100 nM | ≥ 75% | 1000 to 10000 nM | 0 to 25% |
| CC(=O)Nc1ccn(C(=O)N2CCC3(CCCN3Cc3ccc(Cl)cc3N3CCN(C4CC4)CC3)CC2)n1 [Example 13, N-(1-(1-(4-chloro-2-(4-cyclopropylpiperazin-1-yl)benzyl)-1,8-diazaspiro[4.5]decane-8-carbonyl)-1H-pyrazol-3-yl)acetamide] | 100 to 1000 nM | ≥ 75% | 1000 to 10000 nM | 0 to 25% |
| CCN1CCN(c2cc(Cl)ccc2CN2CCCC23CCN(C(=O)n2ccc(NC(C)=O)n2)CC3)CC1 [Example 15, N-(1-(1-(4-chloro-2-(4-ethylpiperazin-1-yl)benzyl)-1,8-diazaspiro[4.5]decane-8-carbonyl)-1H-pyrazol-3-yl)acetamide] | 100 to 1000 nM | ≥ 75% | 1000 to 10000 nM | 0 to 25% |
| CC(=O)Nc1ccn(C(=O)N2CCC3(CCCN3Cc3ccc(Cl)cc3N3CC4COCC4C3)CC2)n1 (stereo not drawn) [Example 17, N-(1-(1-(4-chloro-2-(dihydro-1H-furo[3,4-c]pyrrol-5(3H,6H,6aH)-yl)benzyl)-1,8-diazaspiro[4.5]decane-8-carbonyl)-1H-pyrazol-3-yl)acetamide] | ≤ 100 nM | ≥ 75% | 1000 to 10000 nM | 0 to 25% |
| CC(=O)Nc1ccn(C(=O)N2CCC3(CCCN3Cc3ccc(C(F)(F)F)cc3N3CCC4(C3)CN(S(C)(=O)=O)C4)CC2)n1 [Example 27, N-(1-(1-(2-(2-(methylsulfonyl)-2,6-diazaspiro[3.4]octan-6-yl)-4-(trifluoromethyl)benzyl)-1,8-diazaspiro[4.5]decane-8-carbonyl)-1H-pyrazol-3-yl)acetamide] | ≤ 100 nM | ≥ 75% | 1000 to 10000 nM | 0 to 25% |
| CC(=O)Nc1ccn(C(=O)N2CCC3(CCCN3Cc3ccc(Cl)cc3N3CCN(S(C)(=O)=O)CC3)CC2)n1 [Example 35, N-(1-(1-(4-chloro-2-(4-(methylsulfonyl)piperazin-1-yl)benzyl)-1,8-diazaspiro[4.5]decane-8-carbonyl)-1H-pyrazol-3-yl)acetamide] | 100 to 1000 nM | ≥ 75% | 1000 to 10000 nM | 0 to 25% |
| CC(=O)Nc1ccn(C(=O)N2CCC3(CCCN3Cc3ccc(Cl)cc3N3CCN(C(C)=O)CC3)CC2)n1 [Example 36, N-(1-(1-(2-(4-acetylpiperazin-1-yl)-4-chlorobenzyl)-1,8-diazaspiro[4.5]decane-8-carbonyl)-1H-pyrazol-3-yl)acetamide] | 100 to 1000 nM | ≥ 75% | 1000 to 10000 nM | 0 to 25% |
| CC(=O)Nc1ccn(C(=O)N2CCN(Cc3ccc(C(F)(F)F)cc3N3CCC(F)(F)CC3)CC2)n1 [Example 46, N-(1-(4-(2-(4,4-difluoropiperidin-1-yl)-4-(trifluoromethyl)benzyl)piperazine-1-carbonyl)-1H-pyrazol-3-yl)acetamide] | ≤ 100 nM | ≥ 75% | 1000 to 10000 nM | 0 to 25% |
| CS(=O)(=O)Nc1ccn(C(=O)N2CCN(Cc3ccc(C(F)(F)F)c(C4CCN(CC(=O)O)CC4)c3)CC2)n1 [Example 119, 2-(4-(5-((4-(3-(methylsulfonamido)-1H-pyrazole-1-carbonyl)piperazin-1-yl)methyl)-2-(trifluoromethyl)phenyl)piperidin-1-yl)acetic Acid] | ≤ 100 nM | – | – | – |

Continued, values first:

| IC50 (MAGL) | inhibition at 1 µM (MAGL) | IC50 (FAAH) | inhibition at 1 µM (FAAH) | SMILES |
| --- | --- | --- | --- | --- |
| ≤ 100 nM | ≥ 75% | 1000 to 10000 nM | 0 to 25% | CC(=O)Nc1ccn(C(=O)N2CCC3(CCCN3Cc3ccc(C(F)(F)F)cc3N3CCCC3)CC2)n1 [Example 8, N-(1-(1-(2-(pyrrolidin-1-yl)-4-(trifluoromethyl)benzyl)-1,8-diazaspiro[4.5]decane-8-carbonyl)-1H-pyrazol-3-yl)acetamide] |
| 100 to 1000 nM | ≥ 75% | 1000 to 10000 nM | 0 to 25% | CC(=O)Nc1ccn(C(=O)N2CCC3(CCCN3Cc3ccc(Cl)cc3N3CCC(F)(F)CC3)CC2)n1 [Example 11, N-(1-(1-(4-chloro-2-(4,4-difluoropiperidin-1-yl)benzyl)-1,8-diazaspiro[4.5]decane-8-carbonyl)-1H-pyrazol-3-yl)acetamide] |
| 100 to 1000 nM | ≥ 75% | 1000 to 10000 nM | 0 to 25% | CC(=O)Nc1ccn(C(=O)N2CCC3(CCCN3Cc3ccc(Cl)cc3N3CCOCC3)CC2)n1 [Example 16, N-(1-(1-(4-chloro-2-morpholinobenzyl)-1,8-diazaspiro[4.5]decane-8-carbonyl)-1H-pyrazol-3-yl)acetamide] |
| ≤ 100 nM | ≥ 75% | 1000 to 10000 nM | 0 to 25% | CC(=O)Nc1ccn(C(=O)N2CCC3(CCCN3Cc3ccc(C(F)(F)F)cc3N3CCCCC3)CC2)n1 [Example 19, N-(1-(1-(2-(piperidin-1-yl)-4-(trifluoromethyl)benzyl)-1,8-diazaspiro[4.5]decane-8-carbonyl)-1H-pyrazol-3-yl)acetamide] |
| 100 to 1000 nM | ≥ 75% | 1000 to 10000 nM | 0 to 25% | CC(=O)Nc1ccn(C(=O)N2CCC3(CCCN3Cc3ccc(C(F)(F)F)cc3N3CCN(S(C)(=O)=O)CC3)CC2)n1 [Example 21, N-(1-(1-(2-(4-(methylsulfonyl)piperazin-1-yl)-4-(trifluoromethyl)benzyl)-1,8-diazaspiro[4.5]decane-8-carbonyl)-1H-pyrazol-3-yl)acetamide] |
| 100 to 1000 nM | ≥ 75% | 1000 to 10000 nM | 0 to 25% | CC(=O)Nc1ccn(C(=O)N2CCC3(CCCN3Cc3ccc(C(F)(F)F)cc3N3CCN(C(C)=O)CC3)CC2)n1 [Example 22, N-(1-(1-(2-(4-acetylpiperazin-1-yl)-4-(trifluoromethyl)benzyl)-1,8-diazaspiro[4.5]decane-8-carbonyl)-1H-pyrazol-3-yl)acetamide] |
| ≤ 100 nM | ≥ 75% | 1000 to 10000 nM | 0 to 25% | CC(=O)Nc1ccn(C(=O)N2CCC3(CCCN3Cc3ccc(C)c(C(F)(F)F)c3)CC2)n1 [Example 23, N-(1-(1-(4-methyl-3-(trifluoromethyl)benzyl)-1,8-diazaspiro[4.5]decane-8-carbonyl)-1H-pyrazol-3-yl)acetamide] |
| ≤ 100 nM | ≥ 75% | 1000 to 10000 nM | 0 to 25% | CC(=O)Nc1ccn(C(=O)N2CCC3(CCCN3Cc3ccc(C(F)(F)F)c(Cl)c3)CC2)n1 [Example 24, N-(1-(1-(3-chloro-4-(trifluoromethyl)benzyl)-1,8-diazaspiro[4.5]decane-8-carbonyl)-1H-pyrazol-3-yl)acetamide] |
| – | ≥ 75% | – | 25 to 50% | CC(=O)Nc1ccn(C(=O)N2CCC3(CCCN3Cc3ccc(Cl)c(C(F)(F)F)c3)CC2)n1 [Example 25, N-(1-(1-(4-chloro-3-(trifluoromethyl)benzyl)-1,8-diazaspiro[4.5]decane-8-carbonyl)-1H-pyrazol-3-yl)acetamide] |
| 100 to 1000 nM | ≥ 75% | 1000 to 10000 nM | 0 to 25% | CC(=O)Nc1ccn(C(=O)N2CCC3(CCCN3Cc3ccc(C(F)(F)F)cc3N3CCN(C4CC4)CC3)CC2)n1 [Example 30, N-(1-(1-(2-(4-cyclopropylpiperazin-1-yl)-4-(trifluoromethyl)benzyl)-1,8-diazaspiro[4.5]decane-8-carbonyl)-1H-pyrazol-3-yl)acetamide] |
